Legend:
[1] = Displacement of [3H]DTG from sigma 2 receptor in rat brain homogenate; type: tissue-based
D(2) dopamine receptor [2] = biological target: T1, D(2) dopamine receptor (Homo sapiens, UniProt P14416); assay: Displacement of [3H]N-methylspiperone from human D2 receptor expressed in HEK cells; type: cell-based, HEK293
[3] = biological target: Sigma non-opioid intracellular receptor 1 (Rattus norvegicus, UniProt Q9R0C9); assay: Displacement of [3H](+)-pentazocine from sigma 1 receptor in rat brain homogenate; type: tissue-based
Sequence of Sigma non-opioid intracellular receptor 1 (Q9R0C9 whole entry): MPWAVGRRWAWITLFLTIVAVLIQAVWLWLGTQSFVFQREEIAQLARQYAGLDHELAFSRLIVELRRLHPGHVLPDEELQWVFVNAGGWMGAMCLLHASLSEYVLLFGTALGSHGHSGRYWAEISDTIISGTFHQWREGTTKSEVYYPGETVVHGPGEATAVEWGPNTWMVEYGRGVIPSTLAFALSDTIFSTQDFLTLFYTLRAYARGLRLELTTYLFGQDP

Rattus norvegicus = species: Rattus norvegicus; assay: Ratio of Ki for rat sigma 2 receptor to Ki for rat sigma 1 receptor
D(1A) dopamine receptor = D(1A) dopamine receptor (Homo sapiens, UniProt P21728); assay: Displacement of [3H][…] from human D1 receptor expressed in HEK cells; type: cell-based, HEK293
Sequence of D(1A) dopamine receptor (P21728 whole entry): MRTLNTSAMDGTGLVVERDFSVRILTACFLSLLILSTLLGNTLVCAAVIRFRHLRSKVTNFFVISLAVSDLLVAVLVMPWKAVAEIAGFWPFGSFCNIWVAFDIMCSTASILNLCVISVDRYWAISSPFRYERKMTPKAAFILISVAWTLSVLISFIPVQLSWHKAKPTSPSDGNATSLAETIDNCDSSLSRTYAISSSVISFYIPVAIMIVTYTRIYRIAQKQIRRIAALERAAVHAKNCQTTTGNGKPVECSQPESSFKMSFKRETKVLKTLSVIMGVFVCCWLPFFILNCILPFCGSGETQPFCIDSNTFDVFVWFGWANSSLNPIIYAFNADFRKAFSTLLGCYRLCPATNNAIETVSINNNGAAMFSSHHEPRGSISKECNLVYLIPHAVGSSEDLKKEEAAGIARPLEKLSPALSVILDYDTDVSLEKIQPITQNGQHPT

D(2) dopamine receptor [4] = biological target: T1, D(2) dopamine receptor; assay: Displacement of [3H]N-methylspiperone from human D2 receptor expressed in HEK cells at 10 uM; type: cell-based; conditions: HEK293
D(3) dopamine receptor [5] = biological target: T2, D(3) dopamine receptor (Homo sapiens, UniProt P35462); assay: Displacement of [3H]N-methylspiperone from human D3 receptor expressed in HEK cells; type: cell-based, HEK293
T2 sequence (P35462 whole entry): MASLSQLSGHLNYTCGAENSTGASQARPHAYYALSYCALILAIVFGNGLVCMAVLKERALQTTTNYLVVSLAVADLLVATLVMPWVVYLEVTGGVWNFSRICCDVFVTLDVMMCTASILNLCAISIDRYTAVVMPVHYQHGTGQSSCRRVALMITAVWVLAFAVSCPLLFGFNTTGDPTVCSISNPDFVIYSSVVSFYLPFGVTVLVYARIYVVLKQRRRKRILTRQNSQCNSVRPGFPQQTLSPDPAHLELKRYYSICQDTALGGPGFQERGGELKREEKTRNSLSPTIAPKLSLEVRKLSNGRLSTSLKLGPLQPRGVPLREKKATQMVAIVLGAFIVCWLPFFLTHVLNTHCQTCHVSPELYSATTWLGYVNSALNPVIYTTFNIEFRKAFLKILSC

D(3) dopamine receptor [6] = biological target: T2, D(3) dopamine receptor; assay: Displacement of [3H]N-methylspiperone from human D3 receptor expressed in HEK cells at 10 uM; type: cell-based; conditions: HEK293
D(1B) dopamine receptor = D(1B) dopamine receptor (Homo sapiens, UniProt P21918); assay: Displacement of [3H][…] from human D5 receptor expressed in HEK cells; type: cell-based, HEK293
Sequence of D(1B) dopamine receptor (P21918 whole entry): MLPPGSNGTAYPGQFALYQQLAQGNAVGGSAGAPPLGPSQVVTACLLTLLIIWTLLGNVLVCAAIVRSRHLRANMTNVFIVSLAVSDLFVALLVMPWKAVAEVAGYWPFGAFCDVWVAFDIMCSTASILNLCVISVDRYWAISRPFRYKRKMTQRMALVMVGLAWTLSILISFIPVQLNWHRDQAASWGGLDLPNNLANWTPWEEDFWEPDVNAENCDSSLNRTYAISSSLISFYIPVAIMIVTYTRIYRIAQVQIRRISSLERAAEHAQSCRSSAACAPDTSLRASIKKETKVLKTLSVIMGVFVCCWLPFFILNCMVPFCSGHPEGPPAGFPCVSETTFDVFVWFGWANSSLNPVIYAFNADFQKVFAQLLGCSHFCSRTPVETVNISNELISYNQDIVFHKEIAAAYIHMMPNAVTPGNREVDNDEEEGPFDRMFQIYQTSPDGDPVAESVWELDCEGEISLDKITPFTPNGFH

D(4) dopamine receptor = biological target: T3, D(4) dopamine receptor (Homo sapiens, UniProt P21917); assay: Displacement of [3H]N-methylspiperone from human D4 receptor expressed in HEK cells; type: cell-based, HEK293
T3 sequence (P21917 whole entry): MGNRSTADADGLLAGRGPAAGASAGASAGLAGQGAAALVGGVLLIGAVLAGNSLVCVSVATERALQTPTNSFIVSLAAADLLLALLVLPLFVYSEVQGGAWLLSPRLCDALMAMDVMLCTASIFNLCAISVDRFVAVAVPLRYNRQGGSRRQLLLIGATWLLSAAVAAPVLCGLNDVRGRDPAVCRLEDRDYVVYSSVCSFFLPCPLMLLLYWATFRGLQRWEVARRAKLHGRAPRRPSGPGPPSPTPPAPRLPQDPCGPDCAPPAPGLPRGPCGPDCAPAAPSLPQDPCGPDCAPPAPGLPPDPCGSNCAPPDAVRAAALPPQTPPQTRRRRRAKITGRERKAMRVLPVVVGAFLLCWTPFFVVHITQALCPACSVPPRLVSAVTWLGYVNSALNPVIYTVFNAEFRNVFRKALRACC

T1 sequence (P14416 whole entry): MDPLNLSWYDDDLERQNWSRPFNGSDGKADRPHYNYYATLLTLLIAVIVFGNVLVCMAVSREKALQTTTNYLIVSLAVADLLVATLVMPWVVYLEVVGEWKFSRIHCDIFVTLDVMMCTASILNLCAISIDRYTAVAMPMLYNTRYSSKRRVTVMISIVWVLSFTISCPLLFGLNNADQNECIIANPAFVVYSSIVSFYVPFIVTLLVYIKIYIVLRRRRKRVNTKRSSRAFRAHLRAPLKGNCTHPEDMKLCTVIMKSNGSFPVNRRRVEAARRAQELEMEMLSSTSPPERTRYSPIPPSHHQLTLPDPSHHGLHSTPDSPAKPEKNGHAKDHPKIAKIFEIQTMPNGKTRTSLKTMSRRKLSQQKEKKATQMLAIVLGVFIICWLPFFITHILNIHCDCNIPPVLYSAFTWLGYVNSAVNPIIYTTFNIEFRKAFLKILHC

Compound | Ki [1] | Ki (D(2) dopamine receptor [2]) | Ki [3] | Ratio Ki (Rattus norvegicus) | Ki (D(1A) dopamine receptor) | Activity (D(2) dopamine receptor [4]) | Ki (D(3) dopamine receptor [5]) | also measured
COc1cc2c(cc1OC)CN(CCNC(=O)c1cc(C)ccc1OC)CC2 | 13.3 nM |  |  |  |  |  |  | 
COc1ccc(CCN2C3C4C5CC6C7C5C3C7C2(O)C64)cc1OCCc1ccccc1 (stereo not given) | 93 nM | > 10000 nM | 20 nM | 4.7 | > 10000 nM | < 50% |  | 
COc1ccc(C)cc1C(=O)NCCN1C2C3C4CC5C6C4C2C6C1(O)C53 (stereo not given) | 225 nM | > 10000 nM | 7.6 nM | 30 |  | < 50% | > 10000 nM | Activity (D(3) dopamine receptor [6]): < 50%
CCCN(CCC)CCc1ccc(OC)c(OCCc2ccccc2)c1 | 212 nM |  |  |  |  |  |  | IC50 (D(2) dopamine receptor [2]): > 10000 nM; IC50 (D(1A) dopamine receptor): > 10000 nM
O=C(CCCN1CCC(O)(c2ccc(Cl)cc2)CC1)c1ccc(F)cc1 [HALOPERIDOL] | 7.93 nM |  |  |  |  |  |  | 
O=C(CCCN1C2C3C4CC5C6C4C2C6C1(O)C53)c1ccc(F)cc1 (stereo not given) | 55 nM | 1720 nM | 27 nM |  | 209 nM |  | 1960 nM | Ki (D(1B) dopamine receptor): > 10000 nM; Ki (D(4) dopamine receptor): 93 nM
